± gives the standard deviation of the averaged measurements.
Legend:
Conditions in all cases: exposure: 6-8 hpf to 5 dpf, scored at 6 dpf
Danio rerio embryo/larva [1] = assay: BMC general abnormality; higher = less potent
Procedure: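 Zebrafish embryos (with chorion) were exposed from 6-8 hpf to each PFAS (8-point half-log series, top concentration up to 100 uM, 0.4% DMSO, sealed plates, 26 C; n = 6 embryos per concentration), rinsed at 5 dpf and scored at 6 dpf by two blinded observers for mortality, hatching and malformations. Endpoint scores are the % of living larvae affected (dead larvae excluded; […]). Curves were fitted with tcpl (cutoff 16%), and the BMC is the concentration at a benchmark response of 21.6%.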

Danio rerio embryo/larva [2] = assay: max % larvae with pigmentation defects across tested concentrations; higher = more toxic
Danio rerio embryo/larva [3] = assay: max % larvae with craniofacial defects across tested concentrations; higher = more toxic; extreme values may be limits of the assay
Danio rerio embryo/larva [4] = assay: max % larvae generally abnormal across tested concentrations; higher = more toxic; extreme values may be limits of the assay
Danio rerio embryo/larva [5] = assay: max % larvae with spinal defects across tested concentrations; higher = more toxic; extreme values may be limits of the assay
Danio rerio embryo/larva [6] = assay: max % larvae with uninflated swim bladder across tested concentrations; higher = more toxic; extreme values may be limits of the assay
Danio rerio embryo/larva [7] = assay: max % larvae with abnormal position across tested concentrations; higher = more toxic; extreme values may be limits of the assay
Danio rerio embryo/larva [8] = assay: max % larvae with edema across tested concentrations; higher = more toxic; extreme values may be limits of the assay
Danio rerio embryo/larva [9] = assay: max % larvae with tail defects across tested concentrations; higher = more toxic; extreme values may be limits of the assay
Danio rerio embryo/larva [10] = assay: max % larvae with blood pooling across tested concentrations; higher = more toxic; extreme values may be limits of the assay

Row | SMILES | BMC general abnormality (Danio rerio embryo/larva [1]) | max % larvae (Danio rerio embryo/larva [2]) | max % larvae (Danio rerio embryo/larva [3]) | max % larvae generally abnormal across tested concentrations (Danio rerio embryo/larva [4]) | max % larvae (Danio rerio embryo/larva [5]) | max % larvae (Danio rerio embryo/larva [6]) | max % larvae (Danio rerio embryo/larva [7]) | max % larvae (Danio rerio embryo/larva [8]) | max % larvae (Danio rerio embryo/larva [9]) | max % larvae (Danio rerio embryo/larva [10])
1 | O=C(Cl)C(F)(F)C(F)(F)C(F)(F)C(F)(F)C(F)(F)C(F)(F)C(F)(F)C(F)(F)F [Perfluorononanoyl chloride] (max tested concentration (log10 uM): 1.47712) | 13.1 µM | 0% | 0% | 29.2% | 0% | 50% | 4.17% | 16.7% | 0% | 16.7%
2 | CNS(=O)(=O)C(F)(F)C(F)(F)C(F)(F)C(F)(F)C(F)(F)C(F)(F)C(F)(F)C(F)(F)F [N-Methylperfluorooctanesulfonamide] (max tested concentration (log10 uM): 2) | 0.968 µM | 0% | 18.2% | 50% | 0% | 90.9% | 8.33% | 36.4% | 0% | 0%
3 | O=C(O)CCC(F)(F)C(F)(F)C(F)(F)C(F)(F)C(F)(F)F [2H,2H,3H,3H-Perfluorooctanoic acid] (max tested concentration (log10 uM): 1.47712) | 9.38 µM | 0% | 100% | 100% | 12.5% | 100% | 25% | 100% | 25% | 100%
4 | O=C(O)C(F)(F)C(F)(F)C(F)(F)C(F)(F)C(F)(F)C(F)(F)C(F)(F)C(F)(F)C(F)(F)F [Perfluorodecanoic acid] (max tested concentration (log10 uM): 1.47712) | 11.2 µM | 0% | 0% | 50% | 0% | 100% | 0% | 50% | 0% | 0%
5 | CCNS(=O)(=O)C(F)(F)C(F)(F)C(F)(F)C(F)(F)C(F)(F)C(F)(F)C(F)(F)C(F)(F)F [N-Ethylperfluorooctane sulfonamide] (max tested concentration (log10 uM): 1) | 2.91 µM | 0% | 8.33% | 58.3% | 0% | 83.3% | 8.33% | 41.7% | 0% | 16.7%
6 | O=C(O)C(F)(F)C(F)(F)C(F)(F)C(F)(F)C(F)(F)C(F)(F)C(F)(F)C(F)(F)C(F)(F)C(F)F [11-H-Perfluoroundecanoic acid] (max tested concentration (log10 uM): 1.47712) | 12.6 µM | 0% | 100% | 100% | 0% | 100% | 50% | 100% | 100% | 100%
7 | OC(C(F)(F)F)(C(F)(F)F)C(O)(C(F)(F)F)C(F)(F)F [Perfluoropinacol] (max tested concentration (log10 uM): 0.477121) | 2.52 µM | 0% | 50% | 50% | 0% | 100% | 0% | 50% | 0% | 0%
8 | OCCCC(F)(F)C(F)(F)C(F)(F)C(F)(F)C(F)(F)C(F)(F)C(F)(F)F [7:3 Fluorotelomer alcohol] (max tested concentration (log10 uM): 2) | 44.8 µM | 0% | 11.1% | 22.2% | 0% | 22.2% | 0% | 19.4% | 0% | 16.7%
9 | C=CC(=O)OCC(F)(F)C(F)(F)C(F)(F)C(F)(F)COC(=O)C=C [1H,1H,6H,6H-Perfluorohexane-1,6-diol diacrylate] (max tested concentration (log10 uM): 1) | 7.57 µM | 0% | 8.33% | 25% | 0% | 50% | 4.17% | 25% | 0% | 0%
10 | FC(F)(I)C(F)(F)C(F)(F)C(F)(F)I [Perfluoro-1,4-diiodobutane] (max tested concentration (log10 uM): 2) | 20.6 µM | 0% | 50% | 58.3% | 16.7% | 66.7% | 16.7% | 58.3% | 20.8% | 20%
11 | O=S(=O)(O)C(F)(F)C(F)(F)C(F)(F)C(F)(F)C(F)(F)C(F)(F)C(F)(F)C(F)(F)F [Perfluorooctanesulfonic acid] (max tested concentration (log10 uM): 1) | 7.82 µM | 0% | 50% | 75% | 6.25% | 62.5% | 25% | 43.8% | 18.8% | 0%
12 | OCC(F)(F)C(F)(F)C(F)(F)C(F)(F)C(F)(F)C(F)(F)CO [1H,1H,8H,8H-Perfluorooctane-1,8-diol] (max tested concentration (log10 uM): 2) | 50.1 µM | 0% | 25% | 52.1% | 8.33% | 87.5% | 8.33% | 50% | 2.08% | 0%
13 | OCC(F)(F)C(F)(F)C(F)(F)C(F)(F)C(F)(F)C(F)(F)C(F)(F)C(F)(F)CO [1H,1H,10H,10H-Perfluorodecane-1,10-diol] (max tested concentration (log10 uM): 1) | 3.79 µM | 0% | 83.3% | 75% | 4.17% | 83.3% | 4.17% | 66.7% | 8.33% | 33.3%
14 | O=C(O)C(F)(F)C(F)(F)C(F)(F)C(F)(F)C(F)(F)C(F)(F)C(F)(F)C(F)(F)Cl [9-Chloro-perfluorononanoic acid] (max tested concentration (log10 uM): 2) | 9.23 µM | 0% | 100% | 100% | 50% | 100% | 25% | 100% | 75% | 41.7%
15 | NS(=O)(=O)C(F)(F)C(F)(F)C(F)(F)C(F)(F)C(F)(F)C(F)(F)F [Perfluorohexanesulfonamide] (max tested concentration (log10 uM): 0.477121) | 1.66 µM | 0% | 70% | 85% | 5% | 100% | 30% | 85% | 10% | 0%
16 | FC(F)(I)C(F)(F)C(F)(F)C(F)(F)C(F)(F)C(F)(F)I [1,6-Diiodoperfluorohexane] (max tested concentration (log10 uM): 2) | 4.24 ± 2.6 µM | 10 ± 14% | 90% | 95 ± 7.1% | 33.3 ± 18% | 100% | 54.6 ± 0.59% | 67.5 ± 3.5% | 7.5 ± 11% | 56.7 ± 33%
17 | OCCC(F)(F)C(F)(F)C(F)(F)C(F)(F)C(F)(F)C(F)(F)F [2-(Perfluorohexyl)ethanol] (max tested concentration (log10 uM): 2) | 3.37 µM | 0% | 68.2% | 79.5% | 6.82% | 81.8% | 11.4% | 79.5% | 13.6% | 0%
18 | O=P(O)(O)CCC(F)(F)C(F)(F)C(F)(F)C(F)(F)C(F)(F)C(F)(F)C(F)(F)C(F)(F)F [((Perfluorooctyl)ethyl)phosphonic acid] (max tested concentration (log10 uM): 2) | 1.31 µM | 0% | 20% | 60% | 0% | 100% | 50% | 50% | 5% | 0%
19 | NS(=O)(=O)C(F)(F)C(F)(F)C(F)(F)C(F)(F)C(F)(F)C(F)(F)C(F)(F)C(F)(F)F [Perfluorooctanesulfonamide] (max tested concentration (log10 uM): 0) | 0.381 µM | 0% | 8.33% | 41.7% | 0% | 50% | 8.33% | 37.5% | 0% | 16.7%
20 | O=C(O)CCC(F)(F)C(F)(F)C(F)(F)C(F)(F)C(F)(F)C(F)(F)F [3-(Perfluorohexyl)propanoic acid] (max tested concentration (log10 uM): 1) | 9.01 µM | 0% | 16.7% | 25% | 0% | 16.7% | 4.17% | 25% | 12.5% | 0%
21 | CC(C)(C)C(=O)CC(=O)C(F)(F)C(F)(F)C(F)(F)F [(Heptafluorobutanoyl)pivaloylmethane] (max tested concentration (log10 uM): 2) | 25.6 µM | 0% | 83.3% | 66.7% | 0% | 100% | 25% | 66.7% | 0% | 20%

Source: the supplement of paper PMC11281043
